For one data set, the target named is T1, recombinant human ADAM9 (Homo sapiens, UniProt Q13443).
T1 construct: purchased R&D system
T1 sequence (Q13443 29-819): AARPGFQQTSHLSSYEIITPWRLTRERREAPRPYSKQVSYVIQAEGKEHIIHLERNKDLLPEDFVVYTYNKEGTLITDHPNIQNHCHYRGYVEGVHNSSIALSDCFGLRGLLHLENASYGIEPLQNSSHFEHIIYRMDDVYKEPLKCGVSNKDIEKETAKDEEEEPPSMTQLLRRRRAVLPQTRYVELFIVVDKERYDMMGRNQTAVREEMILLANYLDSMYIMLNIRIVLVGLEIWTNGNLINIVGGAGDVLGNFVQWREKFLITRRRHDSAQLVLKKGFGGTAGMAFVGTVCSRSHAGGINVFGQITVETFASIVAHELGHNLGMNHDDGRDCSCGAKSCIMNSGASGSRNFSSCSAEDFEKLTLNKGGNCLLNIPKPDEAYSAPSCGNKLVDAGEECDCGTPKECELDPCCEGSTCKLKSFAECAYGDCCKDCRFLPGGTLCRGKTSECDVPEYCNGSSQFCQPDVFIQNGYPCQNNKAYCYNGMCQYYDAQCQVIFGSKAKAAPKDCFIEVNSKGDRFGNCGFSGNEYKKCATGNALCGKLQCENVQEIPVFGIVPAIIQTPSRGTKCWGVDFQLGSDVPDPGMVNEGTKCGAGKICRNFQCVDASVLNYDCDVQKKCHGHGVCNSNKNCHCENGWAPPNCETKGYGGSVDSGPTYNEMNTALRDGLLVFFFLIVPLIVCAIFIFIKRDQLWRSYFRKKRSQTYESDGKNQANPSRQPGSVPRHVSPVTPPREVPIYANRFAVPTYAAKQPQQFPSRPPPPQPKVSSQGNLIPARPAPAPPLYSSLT
The data set is described as follows: ADAM9 enzymatic activity, ELISA system with fluorogenic peptide substrate. Format: biochemical. On the procedure: To measure the efficacy of ADAM9 inhibitors in suppression of ADAM9 enzymatic activity, we established an ELISA system using recombinant human ADAM9 and a fluorogenic peptide substrate (R&D system). Broad-spectrum metalloprotease inhibitor BB-94 was included as a positive control. […] To evaluate the specificity of ADAM9 inhibitors, we performed a migration inhibition assay in control (shGFP) and ADAM9 knockdown (shADAM9) lung cancer cells in the presence of 25 μM of each compound. […] To ensure the generality of the compounds in blocking anoikis-resistance of cancer cells, we determined the IC50 of representative compounds for anoikis (anchorage-free induced apoptosis) in cancer cell lines and leukocytes in anchorage-free culture conditions. […] Plating efficiency of Bm7 treated with 20 μM ADAM9 inhibitor and TC1 cells treated with 10 μM ADAM9 inhibitor was shown. Control and ADAM9 knockout (KO) TC1 cells were treated with ADAM9 inhibitor for 24 hours and then stained with annexin V and PI. The apoptotic cells (Annexin V positive cells) are indicated as the percentage of gated cells from three independent experiments with mean±SD.
A general note: ELISA stands for enzyme-linked immunosorbent assay.

Another data set addresses ADAM17 (Homo sapiens, UniProt P78536). The data set is described as follows: ADAM17 inhibition. Format: biochemical.
The test system of data set [1] is lung cancer cells in suspension culture. The data set is described as follows: Cytotoxicity of lung cancer cells in suspension culture. Format: cell-based. The text has this:
The representative derivatives can reduce CDCP1 expression.

The next data set deals with 4T1-luc cells. The data set is described as follows: 4T1-luc breast tumor model, adjuvant therapy after surgery. The format is in vivo. To be noted: for mice with no relapse: adjuvant after surgery, 12W0271 10 mg/kg s.c. (over 333 days), doxorubicin 1 mg/kg i.p., 12 times. The method, then: To compare the therapeutic effect of the inhibitors to chemotherapy agent doxorubicin in breast cancer treatment, we treated mice with 12W0271 or doxorubicin as adjuvant therapy after surgery of primary breast tumors. Balb/c mice received mammary fat pad injection of 5×10^4 4T1-luc cells. ADAM9 inhibitor was subcutaneously injected at 10 mg/kg once a day, 5 times per week for total 12 times. Doxorubicin was intraperitoneally injected at 1 mg/kg, once a day, 5 times per week for total 12 times. […] This breast tumor animal model is a clinically relevant triple negative breast cancer with poor outcome. In doxorubicin treatment, only one mouse (12.5%) had complete response with no relapse. Body weight of survived mice in doxorubicin and 12W0271 groups was determined on day 140. Dash line indicates average body weight in normal mice.

The test system of another data set is TC1 lung cancer cells. The data set is described as follows: Metastatic lung tumor model (intravenous TC1), combination with cisplatin. Format: in vivo, mice. Particulars: ADAM9 inhibitor 4 mg/kg i.v., cisplatin 1.5 mg/kg i.p., twice a week for 4 weeks. On the procedure:
To investigate the synergistic effect of chemotherapy drugs and ADAM9 inhibitors, we measured the cytotoxicity of individual and combination of cisplatin and 12W0271 for 3 days in TC1 cells by MTT. […] ADAM9 inhibitor (4 mg/kg) was intravenous injected twice a week for 4 weeks and cisplatin (1.5 mg/kg) was intraperitoneal injected twice a week for 4 weeks.

Sequence of ADAM17 (P78536 215-824, species assumed): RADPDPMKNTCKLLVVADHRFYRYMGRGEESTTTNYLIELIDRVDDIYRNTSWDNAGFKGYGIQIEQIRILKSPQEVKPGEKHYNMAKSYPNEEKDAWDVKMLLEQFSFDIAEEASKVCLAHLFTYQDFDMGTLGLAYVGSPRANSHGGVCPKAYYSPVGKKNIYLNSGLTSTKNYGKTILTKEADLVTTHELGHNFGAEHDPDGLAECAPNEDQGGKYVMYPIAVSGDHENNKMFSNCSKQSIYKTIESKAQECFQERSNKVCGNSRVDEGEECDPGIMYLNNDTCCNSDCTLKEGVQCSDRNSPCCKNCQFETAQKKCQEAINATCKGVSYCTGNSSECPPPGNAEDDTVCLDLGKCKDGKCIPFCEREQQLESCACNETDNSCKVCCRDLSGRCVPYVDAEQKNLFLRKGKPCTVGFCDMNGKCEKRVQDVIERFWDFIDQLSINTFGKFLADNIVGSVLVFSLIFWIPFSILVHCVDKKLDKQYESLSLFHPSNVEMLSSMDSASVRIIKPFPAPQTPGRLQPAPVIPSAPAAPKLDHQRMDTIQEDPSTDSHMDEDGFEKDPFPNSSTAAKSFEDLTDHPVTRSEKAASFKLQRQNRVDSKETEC

As to `O=C(Nc1nc(CCN2C(=O)c3ccccc3C2=O)cs1)c1cc2ccccc2s1` [6X-0214], the ADAM9 activity entry at recombinant human ADAM9 was “decreased ADAM9 activity to a similar extent in a dose-dependent manner”. For the same molecule, the “inhibitory effects in ADAM17” value against ADAM17 was “no inhibitory effects”. For the same molecule, the “IC50 for the cytotoxicity of lung cancer cells, compared to compound 310” value in data set [1] is “strongly reduced the IC50”.

Take `O=C1c2ccccc2C(=O)N1CCc1csc(Nc2nc(CCN3C(=O)c4ccccc4C3=O)cs2)n1` [12W-0271]: the ADAM9 activity entry at recombinant human ADAM9 is “decreased ADAM9 activity to a similar extent in a dose-dependent manner”. Besides, the “inhibitory effects in ADAM17” value on ADAM17 was “no inhibitory effects”. Moreover, in data set [1], the “IC50 for the cytotoxicity of lung cancer cells, compared to compound 310” value is “strongly reduced the IC50”. Further, the “mice with no relapse” value in the data set on 4T1-luc cells is 37.5%. Further, the “condition and body size of survived mice” value in the data set with 4T1-luc cells (long term, 10 mg/kg s.c.) is on record as “healthy condition with bigger body size than the survival one in doxorubicin group”.

For the molecule `N.N.[Cl][Pt][Cl]` [cisplatin], in the data set on TC1 lung cancer cells, the survival time entry was “significantly prolonged survival time”.

Take `COc1cccc2c1C(=O)c1c(O)c3c(c(O)c1C2=O)C[C@@](O)(C(=O)CO)C[C@@H]3O[C@H]1C[C@H](N)[C@H](O)[C@H](C)O1` [doxorubicin, reference compound]: the “mice with no relapse” value with 4T1-luc cells amounted to 12.5%.

The values are drawn from patent US11357759B2, “Composition including ADAM9 inhibitor and the use thereof” (China Medical University, priority 2017, dated 2022).
